Reference: patent US9650339B2, “Inhibitors of histone demethylases” (Gilead Sciences, Inc., priority 2013, dated 2017)

Experiments:
Assay type in all cases: biochemical
[1] = molecular target: T1, KDM4A (JMJD2A) (Homo sapiens, UniProt O75164); assay: Histone lysine demethylase AlphaLISA assay, KDM4A; conditions: read-out: KDM4A HDME Inhibition IC50
T1 construct: 1-350; purchased BPS Bioscience, US; host or cells: E. coli
T1 sequence (O75164 1-350): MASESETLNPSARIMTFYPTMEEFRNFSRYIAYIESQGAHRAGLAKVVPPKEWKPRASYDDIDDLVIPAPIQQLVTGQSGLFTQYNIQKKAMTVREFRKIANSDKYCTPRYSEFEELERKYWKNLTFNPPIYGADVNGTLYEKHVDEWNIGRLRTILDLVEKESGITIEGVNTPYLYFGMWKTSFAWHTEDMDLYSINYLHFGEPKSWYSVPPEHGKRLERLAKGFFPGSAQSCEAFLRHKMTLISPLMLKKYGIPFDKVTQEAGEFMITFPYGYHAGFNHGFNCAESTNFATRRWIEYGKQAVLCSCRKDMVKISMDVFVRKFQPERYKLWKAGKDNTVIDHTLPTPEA
Experimental: (§1) Assays are performed analogously to the protocol described by PerkinElmer (Roy et al. PerkinElmer Technical Note: AlphaLISA #12, April 2011)
(§2) Enzymes are dissolved in enzyme buffer and incubated for 10 min before being added to 3% DMSO solutions of compounds in enzyme buffer. Incubated for another 10 minutes, before substrate solution is added and the reaction mixture is incubated at room temperature. 10 μL acceptor beads, suspended in Epigenetic Buffer (Perkin Elmer AL008) from stock, are added and the suspension is incubated in the dark at room temperature, before a suspension of streptavidin donor beads (Perkin Elmer 6760002) in Epigenetic Buffer is added. After incubation at room temperature in the dark the plates are read.
BK9M3: Biotin-ARTKQTAR(KMe3)STGGKAPRKQ-NH2 (Caslo, Denmark) […]
(§3) Substrate Solution: Substrate, 25 μM L-Asc, and 10 μM α-KG in Buffer A.

[2] = molecular target: T2, KDM4C (JMJD2C) (Homo sapiens, UniProt Q9H3R0); assay: Histone lysine demethylase AlphaLISA assay, KDM4C; conditions: read-out: KDM4C HDME Inhibition IC50
T2 sequence (Q9H3R0 1-349): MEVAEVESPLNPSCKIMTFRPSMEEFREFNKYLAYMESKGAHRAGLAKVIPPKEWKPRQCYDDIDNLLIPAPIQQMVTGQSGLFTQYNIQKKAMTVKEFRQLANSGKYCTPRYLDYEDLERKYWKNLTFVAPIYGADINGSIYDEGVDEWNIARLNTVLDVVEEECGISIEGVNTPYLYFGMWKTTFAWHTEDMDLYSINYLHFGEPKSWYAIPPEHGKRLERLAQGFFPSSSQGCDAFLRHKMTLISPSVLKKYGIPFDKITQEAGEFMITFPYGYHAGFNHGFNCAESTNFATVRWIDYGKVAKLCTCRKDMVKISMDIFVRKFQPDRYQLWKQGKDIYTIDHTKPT
Summary of the method: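 Biotinylated methylated H3 peptides (K9, K4, K27 or K36 marks) served as substrate, with 25 μM L-Asc and 10 μM α-KG. Enzymes were preincubated 10 min, then exposed to compounds (3% DMSO solutions) 10 min; product detected by AlphaLISA acceptor and streptavidin donor beads at room temperature in dark.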

[3] = molecular target: T3, KDM5C (JARID1C) (Homo sapiens, UniProt P41229); assay: Histone lysine demethylase AlphaLISA assay, KDM5C; conditions: read-out: KDM5C HDME Inhibition IC50
T3 construct: 2-1560; purchased BPS; host or cells: Bac (baculovirus system)
T3 sequence (P41229 2-1560): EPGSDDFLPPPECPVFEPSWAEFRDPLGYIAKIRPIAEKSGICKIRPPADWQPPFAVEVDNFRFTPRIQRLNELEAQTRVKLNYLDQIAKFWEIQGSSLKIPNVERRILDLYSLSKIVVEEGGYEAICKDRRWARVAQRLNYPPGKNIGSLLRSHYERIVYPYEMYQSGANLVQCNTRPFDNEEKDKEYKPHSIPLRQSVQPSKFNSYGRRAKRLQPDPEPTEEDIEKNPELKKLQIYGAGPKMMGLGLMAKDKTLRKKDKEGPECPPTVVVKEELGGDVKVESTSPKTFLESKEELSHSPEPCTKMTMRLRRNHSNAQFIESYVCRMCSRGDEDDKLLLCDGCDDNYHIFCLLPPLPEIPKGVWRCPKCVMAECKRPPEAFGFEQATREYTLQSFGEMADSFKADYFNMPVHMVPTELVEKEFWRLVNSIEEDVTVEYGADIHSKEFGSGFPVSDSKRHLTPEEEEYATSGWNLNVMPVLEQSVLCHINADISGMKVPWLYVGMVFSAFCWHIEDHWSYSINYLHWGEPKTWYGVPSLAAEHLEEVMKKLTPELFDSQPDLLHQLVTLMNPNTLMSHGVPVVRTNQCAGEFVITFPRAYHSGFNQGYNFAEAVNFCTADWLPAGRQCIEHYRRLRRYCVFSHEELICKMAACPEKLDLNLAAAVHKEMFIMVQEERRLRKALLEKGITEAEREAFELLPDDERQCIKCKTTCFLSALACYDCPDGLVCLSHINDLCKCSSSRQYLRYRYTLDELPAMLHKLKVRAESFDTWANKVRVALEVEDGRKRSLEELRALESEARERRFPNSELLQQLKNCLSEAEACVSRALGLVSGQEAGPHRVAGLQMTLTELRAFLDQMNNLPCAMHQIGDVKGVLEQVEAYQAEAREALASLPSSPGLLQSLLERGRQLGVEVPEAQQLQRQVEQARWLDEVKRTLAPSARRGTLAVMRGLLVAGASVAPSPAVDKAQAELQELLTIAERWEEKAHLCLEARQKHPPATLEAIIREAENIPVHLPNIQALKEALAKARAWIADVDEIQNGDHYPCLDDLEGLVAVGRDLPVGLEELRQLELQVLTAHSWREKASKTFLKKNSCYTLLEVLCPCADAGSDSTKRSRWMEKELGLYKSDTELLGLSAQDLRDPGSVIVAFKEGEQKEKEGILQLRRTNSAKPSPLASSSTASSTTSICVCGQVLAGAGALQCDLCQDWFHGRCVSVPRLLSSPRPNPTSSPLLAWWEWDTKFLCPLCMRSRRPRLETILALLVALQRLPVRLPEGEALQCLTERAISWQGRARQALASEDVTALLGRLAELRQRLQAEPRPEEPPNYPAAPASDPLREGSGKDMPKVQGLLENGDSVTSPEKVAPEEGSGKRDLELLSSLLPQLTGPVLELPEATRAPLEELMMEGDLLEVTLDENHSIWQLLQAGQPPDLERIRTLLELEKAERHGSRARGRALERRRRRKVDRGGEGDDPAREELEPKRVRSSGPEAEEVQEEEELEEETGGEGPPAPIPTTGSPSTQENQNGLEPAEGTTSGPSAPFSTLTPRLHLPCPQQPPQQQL
Experimental: as §1
as §2, with “read. […]” for “read.”
H3K4M3B: H-ART(Kme3)QTARKSTGGKAPRKQLA-NH-Biotin (Caslo, Denmark) […]
as §3

[4] = molecular target: T4, KDM3A (JMJD1A) (Homo sapiens, UniProt Q9Y4C1); assay: Histone lysine demethylase AlphaLISA assay, KDM3A; conditions: read-out: KDM3 A HDME Inhibition IC50
T4 construct: 2-end; purchased BPS Bioscience, US; host or cells: Bac (baculovirus system)
T4 sequence (Q9Y4C1 2-1321 limits assumed): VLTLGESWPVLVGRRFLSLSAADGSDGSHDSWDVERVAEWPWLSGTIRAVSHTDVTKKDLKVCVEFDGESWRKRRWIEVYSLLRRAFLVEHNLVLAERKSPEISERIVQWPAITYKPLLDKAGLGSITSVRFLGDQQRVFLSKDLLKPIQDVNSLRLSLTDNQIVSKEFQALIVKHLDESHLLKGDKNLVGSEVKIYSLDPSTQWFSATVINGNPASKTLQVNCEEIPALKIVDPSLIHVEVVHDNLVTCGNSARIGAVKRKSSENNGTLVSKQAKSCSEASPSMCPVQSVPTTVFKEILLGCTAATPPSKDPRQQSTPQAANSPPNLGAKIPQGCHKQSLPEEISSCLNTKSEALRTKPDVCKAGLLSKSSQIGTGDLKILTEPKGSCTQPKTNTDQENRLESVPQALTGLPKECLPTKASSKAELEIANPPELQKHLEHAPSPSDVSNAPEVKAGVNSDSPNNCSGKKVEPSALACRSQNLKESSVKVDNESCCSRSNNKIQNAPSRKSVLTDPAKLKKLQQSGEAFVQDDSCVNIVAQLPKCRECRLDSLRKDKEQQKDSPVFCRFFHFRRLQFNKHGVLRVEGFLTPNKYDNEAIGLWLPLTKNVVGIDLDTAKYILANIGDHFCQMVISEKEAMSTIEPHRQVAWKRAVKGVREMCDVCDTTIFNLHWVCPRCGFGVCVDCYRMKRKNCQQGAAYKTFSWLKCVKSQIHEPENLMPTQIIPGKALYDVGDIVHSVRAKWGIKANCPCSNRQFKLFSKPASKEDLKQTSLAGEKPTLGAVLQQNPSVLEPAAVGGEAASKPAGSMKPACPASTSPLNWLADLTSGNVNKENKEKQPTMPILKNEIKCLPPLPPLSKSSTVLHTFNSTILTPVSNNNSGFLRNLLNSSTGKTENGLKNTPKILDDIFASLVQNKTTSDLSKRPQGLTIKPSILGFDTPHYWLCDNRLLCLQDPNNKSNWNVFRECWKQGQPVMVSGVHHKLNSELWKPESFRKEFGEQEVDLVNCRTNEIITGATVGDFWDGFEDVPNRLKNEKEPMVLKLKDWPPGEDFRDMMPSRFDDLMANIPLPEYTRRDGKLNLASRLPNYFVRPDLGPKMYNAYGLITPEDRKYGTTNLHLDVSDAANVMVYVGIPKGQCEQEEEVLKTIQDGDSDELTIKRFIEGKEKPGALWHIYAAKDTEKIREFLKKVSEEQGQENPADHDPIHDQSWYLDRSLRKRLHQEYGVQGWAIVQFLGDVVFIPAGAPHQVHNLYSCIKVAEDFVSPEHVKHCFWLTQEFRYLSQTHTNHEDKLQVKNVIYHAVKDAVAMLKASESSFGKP
Experimental: as §1
as §2, with “read. […]” for “read.”
BK9M2: Biotin-ARTKQTAR(KMe2)STGGKAPRKQ-NH2 (AnaSpec 64359) […]
as §3

Row | SMILES | IC50 [1] | IC50 [2] | IC50 [3] | IC50 [4]
1 | CCCNCc1cc(CNC2CC2)ccn1 [Compound 12, N-({2-[(propylamino)methyl]-pyridin-4-yl}methyl)-cyclopropanamine] | > 2500 nM | > 2500 nM | > 2500 nM | > 2500 nM
2 | CCN(CC)CCCCNCc1cc(/C=N/CCOC)ccn1 [Compound 60, [4-(diethylamino)butyl]-({4-[[(2-methoxyethyl)imino]-methyl]pyridin-2-yl}methyl)amine] | < 250 nM | > 2500 nM | < 250 nM | > 2500 nM
3 | CCN(CC)CCCCNCc1cc(C=O)ccn1 [Compound 107, 2-({[4-(diethylamino)-butyl]amino}-methyl)pyridine-4-carbaldehyde] | > 2500 nM | > 2500 nM | < 250 nM | > 2500 nM
4 | CN(C)CCCCCNCc1cc(C=O)ccn1 [Compound 114, 2-({[5-(dimethylamino)-pentyl]amino}methyl)-pyridine-4-carbaldehyde] | > 2500 nM | 250 to 2500 nM | < 250 nM | > 2500 nM
5 | CN(C)C(=O)CNCc1cc(/C=N/CCCc2ccccc2)ccn1 [Compound 34, N,N-dimethyl-2-[({4-[[(3-phenylpropyl)imino]-methyl]pyridin-2-yl}methyl)amino]-acetamide] | > 2500 nM | 250 to 2500 nM | < 250 nM | > 2500 nM
6 | CCN(CC)CCCCNC(=O)CNCc1cc(C=O)ccn1 [Compound 112, N-[4-(diethylamino)-butyl]-2-{[(4-formylpyridin-2-yl)methyl]amino}-acetamide] | < 250 nM | 250 to 2500 nM | < 250 nM | > 2500 nM
7 | CNC(C#N)c1ccnc(CNCCCN(C)C)c1 (centres unmarked) [Compound 24, 2-[2-({[3-(dimethylamino)propyl]-amino}methyl)pyridin-4-yl]-2-(methylamino)-acetonitrile] | 250 to 2500 nM | 250 to 2500 nM | < 250 nM | > 2500 nM
8 | CCN(CCN(C)C)C(=O)CNCc1cc(CNC(=O)C(F)(F)F)ccn1 [Compound 25, N-[(2-{[({[2-(dimethylamino)ethyl]-(ethyl)carbamoyl}-methyl)amino]methyl}-pyrtdin-4-yl)methyl]-2,2,2-trifluoroacetamide] | > 2500 nM | > 2500 nM | 250 to 2500 nM | > 2500 nM
9 | CN(C)C/C=C\CNCc1cc(C=O)ccn1 [Compound 99, 2-({[(2Z)-4-(dimethylamino)-but-2-en-1-yl]amino}methyl)-pyridine-4-carbaldehyde] | > 2500 nM | > 2500 nM | < 250 nM | > 2500 nM
10 | CC(C#N)NCc1ccnc(CNCCCN(C)C)c1 (centres unmarked) [Compound 22, 2-({[2-({[3-(dimethylamino)propyl]-amino}methyl)pyridin-4-yl]methyl}amino)-propanenitrile] | > 2500 nM | > 2500 nM | < 250 nM | > 2500 nM
11 | CCN(CC)CCCCNCc1cc(/C=N\CCC2CCCCC2)ccn1 [Compound 67, (2-cyclohexylethyl)-({[2-({[4-(diethylamino)-butyl]amino}methyl)pyridin-4-yl]methylidene})-amine] | > 2500 nM | 250 to 2500 nM | < 250 nM | > 2500 nM

The next lines start with the values.

Row | IC50 [1] | IC50 [2] | IC50 [3] | IC50 [4] | SMILES
12 | < 250 nM | 250 to 2500 nM | < 250 nM | > 2500 nM | O=C(CNCc1cc(/C=N/C2CC2)ccn1)N1CCC[C@@H]1CN1CCCC1 [Compound 49, 2-[({4-[N-cyclopropyl-carboximidoyl]pyridin-2-yl}methyl)amino]-1-[(2R)-2-(pyrrolidin-1-ylmethyl)pyrrolidin-1-yl]ethan-1-one]
13 | 250 to 2500 nM | > 2500 nM | < 250 nM | > 2500 nM | CCN1CCCC1CNC(=O)CNCc1cc(/C=N/C2CC2)ccn1 (centres unmarked) [Compound 51, 2-[({4-[N-cyclopropyl-carboximidoyl]-pyridin-2-yl}methyl)-amino]-N-[(1-ethylpyrrolidin-2-yl)methyl]acetamide]
14 | < 250 nM | 250 to 2500 nM | < 250 nM | > 2500 nM | CCN(CC)CCCCNC(=O)CNCc1cc(/C=N/C2CC2)ccn1 [Compound 48, 2-[({4-[N-cyclopropyl-carboximidoyl]pyridin-2-yl}methyl)amino]-N-[4-(diethylamino)-butyl]acetamide]
15 | < 250 nM | 250 to 2500 nM | < 250 nM | > 2500 nM | CC1CC1/N=C/c1ccnc(CNCC(=O)N(C)C)c1 (centres unmarked) [Compound 35, N,N-dimethyl-2-[({4-[N-(2-methylcyclopropyl)-carboximidoyl]pyridin-2-yl}methyl)amino]-acetamide]
16 | > 2500 nM | > 2500 nM | < 250 nM | > 2500 nM | CN(C)CCCCNCc1cc(/C=N\C2CC2)ccn1 [Compound 45, N-{[2-({[4-(dimethylamino)butyl]-amino}methyl)-pyridin-4-yl]methylidene}-cyclopropanamine]
17 | 250 to 2500 nM | > 2500 nM | < 250 nM | > 2500 nM | CN(C)CC1CCC(CNCc2cc(/C=N/C3CC3)ccn2)CC1 (centres unmarked) [Compound 46, N-[(2-{[({4-[(dimethylamino)-methyl]cyclohexyl}-methyl)amino]-methyl}pyridin-4-yl)methylidene]-cyclopropanamine]
